Data taken from ChEMBL document CHEMBL1795291, “Computer- and structure-based lead design for epigenetic targets” (Bioorg Med Chem, 2011).

Columns and labels:
[1] = target: T1, Histone-lysine N-methyltransferase EHMT2 (Homo sapiens, UniProt Q96KQ7); assay: Inhibition of lysine methyltransferase G9a
T1 sequence (Q96KQ7 whole entry): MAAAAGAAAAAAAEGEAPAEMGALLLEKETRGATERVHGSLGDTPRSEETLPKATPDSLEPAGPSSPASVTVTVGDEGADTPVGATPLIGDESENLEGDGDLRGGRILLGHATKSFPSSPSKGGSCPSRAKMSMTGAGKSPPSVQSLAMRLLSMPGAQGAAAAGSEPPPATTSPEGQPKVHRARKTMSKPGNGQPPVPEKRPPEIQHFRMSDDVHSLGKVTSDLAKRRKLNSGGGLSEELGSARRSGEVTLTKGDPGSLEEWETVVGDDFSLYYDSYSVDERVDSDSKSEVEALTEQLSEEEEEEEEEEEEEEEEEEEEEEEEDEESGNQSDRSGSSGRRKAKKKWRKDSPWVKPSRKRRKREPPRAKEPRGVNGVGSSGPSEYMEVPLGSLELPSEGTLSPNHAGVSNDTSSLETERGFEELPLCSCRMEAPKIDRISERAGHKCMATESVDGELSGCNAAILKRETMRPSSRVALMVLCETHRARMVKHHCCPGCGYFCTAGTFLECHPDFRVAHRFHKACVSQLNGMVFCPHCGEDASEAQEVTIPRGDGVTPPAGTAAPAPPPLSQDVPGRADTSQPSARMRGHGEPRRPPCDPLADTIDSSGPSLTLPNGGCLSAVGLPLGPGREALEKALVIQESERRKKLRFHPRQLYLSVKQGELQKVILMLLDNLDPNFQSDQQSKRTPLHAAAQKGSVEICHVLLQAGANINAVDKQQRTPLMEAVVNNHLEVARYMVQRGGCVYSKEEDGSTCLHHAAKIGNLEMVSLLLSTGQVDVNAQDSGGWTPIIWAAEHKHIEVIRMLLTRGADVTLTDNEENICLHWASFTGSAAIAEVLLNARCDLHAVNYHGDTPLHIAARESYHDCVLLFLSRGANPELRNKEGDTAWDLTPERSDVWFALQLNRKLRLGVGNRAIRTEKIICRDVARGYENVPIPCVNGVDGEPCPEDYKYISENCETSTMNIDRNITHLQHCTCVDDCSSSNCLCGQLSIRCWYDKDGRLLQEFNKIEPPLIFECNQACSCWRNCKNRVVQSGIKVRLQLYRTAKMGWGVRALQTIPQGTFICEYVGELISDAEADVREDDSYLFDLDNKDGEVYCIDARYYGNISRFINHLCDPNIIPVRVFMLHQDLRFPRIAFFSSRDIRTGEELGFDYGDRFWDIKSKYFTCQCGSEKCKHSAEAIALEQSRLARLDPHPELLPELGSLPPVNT

[2] = Inhibition of HDAC by fluorescence assay
[3] = target: T2, NAD-dependent protein deacetylase sirtuin-2 (Homo sapiens, UniProt Q8IXJ6); assay: Inhibition of human Sirt2
T2 sequence (Q8IXJ6 whole entry): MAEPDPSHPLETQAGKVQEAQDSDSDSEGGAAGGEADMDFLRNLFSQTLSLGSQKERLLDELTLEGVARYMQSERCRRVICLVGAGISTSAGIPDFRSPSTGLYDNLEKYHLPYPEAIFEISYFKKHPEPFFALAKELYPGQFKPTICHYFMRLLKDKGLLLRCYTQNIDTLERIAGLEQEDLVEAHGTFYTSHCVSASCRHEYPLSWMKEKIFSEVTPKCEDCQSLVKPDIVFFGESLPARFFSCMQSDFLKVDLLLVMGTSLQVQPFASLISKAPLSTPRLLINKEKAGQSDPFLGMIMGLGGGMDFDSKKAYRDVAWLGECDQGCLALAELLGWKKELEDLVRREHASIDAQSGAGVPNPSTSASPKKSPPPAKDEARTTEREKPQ

COc1ccc(C(=O)Oc2ccc(CCn3c(NC(=O)c4ccc(C(F)(F)F)cc4)nc4cc(C(=O)O)ccc43)cc2)cc1
IC50 [1]: 0.106 µM

CCc1nnc(NS(=O)(=O)c2ccc(N/C=C3\Sc4ccccc4C3=O)cc2)s1
IC50 [2]: 4.3 µM

O=C1NC(=S)NC(=O)C1=Cc1ccc(-c2ccccc2)cc1
IC50 [3]: 8.7 µM
